Among the test systems are SK-OV-3; UACC-257; HT-29; Malme-3M; A549; OVCAR-4; OVCAR-3; K562; NCI-H23; CCRF-CEM; ACHN; T47D; BT-549; Hs-578T; LOX IMVI; SF-268; MOLT-4; SF-295; OVCAR-5.
Experiment in all cases: NCI-60 cell line screen, 48 h

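Test compounds were applied to cells in 96-well plates for 48 hours at 5 doses. Abbreviation: GI50, concentration required for 50% inhibition of growth.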 The source made the active and inactive calls. Cut-off read from the data, not from the text of the source: active = GI50 up to about 1.1 µM and inactive = higher.

Turning to `Cn1c(N)c(/C=C/C(=O)Oc2ccccc2)c(=O)n(C)c1=O`, the GI50 with SK-OV-3 was 56.5 µM (inactive); in the assay on UACC-257 it was > 100 µM (inactive); in the assay on HT-29, > 100 µM (inactive); in the assay on Malme-3M, > 100 µM (inactive); in the assay on A549, > 100 µM (inactive); in the assay with OVCAR-4 it was > 100 µM (inactive). In addition, the GI50 in the assay on OVCAR-3 was > 100 µM (inactive); in the assay on K562 it was > 100 µM (inactive); in the assay on NCI-H23 it was > 100 µM (inactive); with CCRF-CEM it was > 100 µM (inactive); with ACHN, 50.7 µM (inactive); in the assay on T47D it was 85.3 µM (inactive). Also, the GI50 with BT-549 was > 100 µM (inactive); in the assay on Hs-578T, 36 µM (inactive); in the assay on LOX IMVI, > 100 µM (inactive); in the assay on SF-268, 31.7 µM (inactive); in the assay with MOLT-4, > 100 µM (inactive); in the assay with SF-295 it was 33.7 µM (inactive). Besides, in the assay with OVCAR-5, the GI50 is > 100 µM (inactive).

As to `CCCN(CCC)C(=S)N/N=C/c1ccccn1`, the GI50 with SK-OV-3 is < 0.012 µM (active); in the assay on UACC-257, < 0.01 µM (active); with HT-29, < 0.01 µM (active); in the assay on Malme-3M it was 0.0463 µM (active); with A549, < 0.0138 µM (active); in the assay with OVCAR-4, < 0.01 µM (active). Besides, the GI50 in the assay on OVCAR-3, with K562, with NCI-H23, in the assay with CCRF-CEM, in the assay with ACHN and in the assay with T47D was < 0.01 µM (active) throughout. Besides, the GI50 with BT-549 is 0.341 µM (active); in the assay on Hs-578T, 2.96 µM (inactive); in the assay on LOX IMVI, < 0.01 µM (active); in the assay with SF-268 it was < 0.0135 µM (active); in the assay on MOLT-4, < 0.01 µM (active); in the assay with SF-295, 0.0468 µM (active). For the same compound, the GI50 in the assay with OVCAR-5 is < 0.0482 µM (active).

In the case of `CO/N=C(\C)CCC#Cc1ccccc1C(=O)OC`, the GI50 in the assay with SK-OV-3, with UACC-257, in the assay with HT-29, in the assay on Malme-3M, in the assay with A549 and in the assay on OVCAR-4 was > 10 µM (inactive) in each case. In addition, the GI50 in the assay on OVCAR-3, in the assay on K562, in the assay with NCI-H23, in the assay with CCRF-CEM, in the assay with ACHN and in the assay on T47D was > 10 µM (inactive) in each case. For the same compound, the GI50 in the assay on BT-549, in the assay with Hs-578T, with LOX IMVI, with SF-268, with MOLT-4 and with SF-295 was > 10 µM (inactive) throughout. Moreover, the GI50 in the assay on OVCAR-5 was > 10 µM (inactive).

Regarding `C[n+]1c(-c2ccc(/C=C/C=N\NC(=O)c3ccc(C(=O)N/N=C\C=C\c4ccc(-c5cn6ccccc6[n+]5C)cc4)cc3)cc2)cn2ccccc21`, the GI50 in the assay on SK-OV-3 was > 100 µM (inactive); with UACC-257, > 100 µM (inactive); with HT-29, > 100 µM (inactive); with Malme-3M, > 100 µM (inactive); with A549, 74.1 µM (inactive); in the assay with OVCAR-4 it was > 81.7 µM (inactive). The GI50 in the assay on OVCAR-3 was > 64 µM (inactive); in the assay on K562, 27.5 µM (inactive); in the assay with NCI-H23 it was 71.4 µM (inactive); in the assay with CCRF-CEM it was 23.9 µM (inactive); with ACHN it was > 100 µM (inactive); with T47D, > 48.1 µM (inactive). Further, the GI50 is 38.2 µM (inactive) in the assay on BT-549; > 100 µM (inactive) in the assay with Hs-578T; > 68.7 µM (inactive) with LOX IMVI; > 100 µM (inactive) in the assay on SF-268; 43.6 µM (inactive) in the assay on MOLT-4; > 100 µM (inactive) in the assay with SF-295. In the assay with OVCAR-5, the GI50 was > 100 µM (inactive).

For the compound `CN(C)/C=N/c1ccc2c3c(cccc13)-c1ccccc1-2`, the GI50 is 13.7 µM (inactive) in the assay with SK-OV-3; 17.3 µM (inactive) in the assay on UACC-257; 10 µM (inactive) in the assay on HT-29; 18.5 µM (inactive) in the assay on Malme-3M; 11.5 µM (inactive) in the assay with A549; 15.7 µM (inactive) with OVCAR-4. Besides, the GI50 is 14.9 µM (inactive) in the assay with OVCAR-3; 10.2 µM (inactive) with K562; 17.2 µM (inactive) with NCI-H23; 2.23 µM (inactive) in the assay on CCRF-CEM; 16 µM (inactive) in the assay with ACHN; 15 µM (inactive) with T47D. Also, the GI50 is 17 µM (inactive) in the assay with BT-549; 10.3 µM (inactive) in the assay with Hs-578T; 14.5 µM (inactive) in the assay with LOX IMVI; 12.5 µM (inactive) with SF-268; 10.1 µM (inactive) in the assay with MOLT-4; 14.4 µM (inactive) with SF-295. Moreover, the GI50 in the assay on OVCAR-5 is 11.1 µM (inactive).

Take `CC(C)CCC/C(CBr)=C(\Cl)CCl`: the GI50 in the assay with SK-OV-3 was 7.82 µM (inactive); with UACC-257 it was 2.13 µM (inactive); in the assay with HT-29 it was 2.37 µM (inactive); with Malme-3M, 2.59 µM (inactive); with A549, 15.7 µM (inactive); with OVCAR-4, 1.48 µM (inactive). Besides, the GI50 in the assay on OVCAR-3 is 2.53 µM (inactive); with K562, 0.104 µM (active); with NCI-H23, 2.4 µM (inactive); in the assay on CCRF-CEM, 0.123 µM (active); with ACHN, 11.2 µM (inactive); with T47D, 1.17 µM (inactive). Also, the GI50 in the assay on BT-549 is 1.82 µM (inactive); in the assay with Hs-578T it was 2.45 µM (inactive); in the assay with LOX IMVI, 0.0728 µM (active); with SF-268, 3.55 µM (inactive); in the assay with MOLT-4, 0.653 µM (active); in the assay on SF-295, 13.3 µM (inactive). Also, the GI50 with OVCAR-5 is 15.1 µM (inactive).

For `Cn1c2c(c3c(=O)[nH]ncc31)Cc1ccccc1-2`, the GI50 with SK-OV-3 is 6.49 µM (inactive); in the assay with UACC-257, 10.8 µM (inactive); in the assay on HT-29, 9.64 µM (inactive); with Malme-3M, 16.3 µM (inactive); in the assay with A549, 6.56 µM (inactive); in the assay with OVCAR-4 it was 21.3 µM (inactive). For the same compound, the GI50 was 12.7 µM (inactive) in the assay with OVCAR-3; 18.2 µM (inactive) in the assay on K562; 24.3 µM (inactive) in the assay with NCI-H23; 9.1 µM (inactive) with CCRF-CEM; 5.07 µM (inactive) with ACHN; 25.6 µM (inactive) with T47D. In addition, the GI50 was 18.3 µM (inactive) in the assay on BT-549; 26.5 µM (inactive) in the assay with Hs-578T; 6.65 µM (inactive) with LOX IMVI; 12 µM (inactive) with SF-268; 3.45 µM (inactive) in the assay on MOLT-4; 4.33 µM (inactive) in the assay on SF-295. Besides, in the assay on OVCAR-5, the GI50 was 31.1 µM (inactive).

As to `COc1ccccc1NC(=O)C(C#N)=C(SC)SC`, the GI50 in the assay on SK-OV-3, in the assay on UACC-257, in the assay on HT-29, with Malme-3M, in the assay on A549 and with OVCAR-4 was > 100 µM (inactive) throughout. The GI50 in the assay with OVCAR-3 is > 100 µM (inactive); in the assay with K562, > 100 µM (inactive); with NCI-H23 it was > 100 µM (inactive); in the assay with CCRF-CEM, 89.5 µM (inactive); in the assay with ACHN, > 100 µM (inactive); with T47D, 30.2 µM (inactive). Also, the GI50 with BT-549, with Hs-578T, in the assay on LOX IMVI, in the assay with SF-268, in the assay on MOLT-4 and in the assay with SF-295 was > 100 µM (inactive) throughout. The GI50 with OVCAR-5 is > 100 µM (inactive).

For the origin of these results see ChEMBL document CHEMBL1201862, “PubChem BioAssay data set” (2004).
